Test results reported in patent US20170202838A1, “IMMUNOMODULATOR” (TAIHO PHARMACEUTICAL CO., LTD., priority 2015, published 2017).

How the values were obtained:
[1] = test system: human peripheral blood mononuclear cells; assay: Induction of cytokine production in human peripheral blood mononuclear cells, Bio-Plex Pro cytokine assay (Example 7); assay type: cell-based; settings: 2 days culture, no stimulant (FIG. 9)
Protocol: Human peripheral blood mononuclear cells were introduced into a human complete medium (i.e., RPMI-1640 supplemented with 10% heat-inactivated FBS, 100 U/ml penicillin, and 100 μg/ml streptomycin) to prepare a cell suspension (1×10^5 cells/ml). Compound (I), the EGFR tyrosine kinase inhibitor (i.e., AZD9291 or Erlotinib), or a cytokine-inducing positive control (i.e., Imiquimod) was added to the cell suspension. A control group to which the EGFR tyrosine kinase inhibitor and others were not added was also prepared (i.e., the non-treatment group). The culture solution was cultured in an incubator at 37° C. in the presence of 5% CO2 for 2 days. The culture supernatant was recovered, and various types of cytokines were inspected with the use of the Bio-Plex Pro human cytokine assay kit.

MC38 = assay: Tumor volume of subcutaneous mouse colon cancer cell line, alone or combined with anti-PD-1 antibody, in vivo model (Example 11)
Protocol: A cell suspension of the mouse colon cancer cell line MC38 was prepared with the use of PBS(-) and 50% Matrigel, and the cell suspension was injected subcutaneously into mice at 1×10^6 cells/mouse. The mice were divided into groups when the average subcutaneous tumor volume reached approximately 50 mm^3, Compound (I) (50 mg/kg) or the anti-PD-1 antibody (50 μg/mouse) was administered thereto alone or Compound (I) (50 mg/kg) was administered in combination with the anti-PD-1 antibody (50 μg/mouse), and the tumor volume was measured with the elapse of time. The tumor volume was determined on the basis of the longer diameter and the shorter diameter of the tumor measured percutaneously in accordance with Equation A shown below.
Tumor volume (mm^3)=longer diameter (mm)×shorter diameter (mm)^2/2 (Equation A)

`C=CC(=O)N[C@H]1CCc2c(-c3cnc4ccccc4c3)c3c(N)ncnc3n2C1` [Compound (I), (S)—N-(4-amino-5-(quinolin-3-yl)-6,7,8,9-tetrahydropyrimido[5,4-b]indolizin-8-yl)acrylamide] was tested, and the “cytokine concentrations relative to the non-treatment group” value [1] was “induced the production of various types of cytokines”, the “extent of tumor growth inhibition (tumor volume)” value (MC38; Compound (I) 50 mg/kg alone, compared with control group (FIG. 13)) was “greater” and the “potentiation of the activity of the anti-PD-1 antibody (tumor volume)” value (MC38; Compound (I) 50 mg/kg in combination with anti-PD-1 antibody 50 μg/mouse (FIG. 13)) was “potentiate the immunomodulation activity of the anti-PD-1 antibody”.
